Several values for one entry are separate records, joined by “and”; a condition that tells them apart may be missing. Equal values may be shown once.

The subject of the assay is MAO-B vs MAO-A. Kind of assay: Selectivity index of ChEMBl reference structures (MAO-A and MAO-B IC50). Format: biochemical, human. Conditions: selectivity index calculated from ChEMBl IC50 values of MAO-A and MAO-B.

For `CN(C)c1ccc(/C=C2\Oc3cc(O)cc(O)c3C2=O)cc1` [CHEMBL2288402], the Selectivity is 0.04 and 0.03923.

`COc1ccc(C2CC(c3ccc(O)cc3)=NN2C(C)=O)cc1` (centres unmarked) [CHEMBL65761]: the Selectivity is recorded as 0.00125.

As for `O=C1/C(=C/c2cccc(O)c2)Cc2cc(O)ccc21` [CHEMBL3891485], the Selectivity was 1.242 and 1.24.

With `O=C1/C(=C/c2cccc(F)c2)Cc2cc(O)ccc21` [CHEMBL3965044], the Selectivity is 5.452.

On to `O=C(Nc1ccc(O)cc1)c1coc2ccccc2c1=O` [CHEMBL1814064], for which the Selectivity is 74.375 and 74.38.

As for `O=C(Nc1ccc(O)c(O)c1)c1coc2ccccc2c1=O` [CHEMBL1814066], the Selectivity was 2.69.

Turning to `O=C1/C(=C/c2ccc(O)cc2)Cc2cc(O)ccc21` [CHEMBL3890408], the Selectivity was 0.6095 and 0.61.

Turning to `O=C1/C(=C/c2ccc(Cl)cc2)Cc2cc(O)ccc21` [CHEMBL3907033], the Selectivity was 57.

For `Cc1ccc(O)c(/N=C/c2coc3ccc(C)cc3c2=O)c1` [CHEMBL4082612], the Selectivity was 6.275.

In the case of `Cc1ccc(O)c(/N=C/c2coc3ccccc3c2=O)c1` [CHEMBL4100473], the Selectivity was 2.956.

As to `Cc1ccc2occ(/C=N/c3ccc(Cl)cc3O)c(=O)c2c1` [CHEMBL4099570], the Selectivity is listed as 2.863.

For `O=C1/C(=C/c2ccc(F)cc2)Cc2cc(O)ccc21` [CHEMBL3933900], the Selectivity is reported as 14.4468.

Turning to `O=c1c(/C=N/c2ccc(Cl)cc2O)coc2ccccc12` [CHEMBL4086270], the Selectivity is 0.7978.

For the molecule `O=C1/C(=C/c2cccc(Cl)c2)Cc2cc(O)ccc21` [CHEMBL3924440], the Selectivity is reported as 5.233.

For the molecule `O=C1/C(=C/c2cccc(Br)c2)Cc2cc(O)ccc21` [CHEMBL3979091], the Selectivity was 10.0769.

On to `O=C1/C(=C/c2ccc(N3CCOCC3)cc2)Oc2cc(O)cc(O)c21` [CHEMBL1814450], for which the Selectivity is on record as 3.176.

In the case of `Cc1ccc2occ(/C=N/c3cc(Cl)ccc3O)c(=O)c2c1` [CHEMBL4073506], the Selectivity is recorded as 3.391.

For `N#Cc1cccc(/C=C2\Cc3cc(O)ccc3C2=O)c1` [CHEMBL3971638], the Selectivity was 3.415.

With `N#Cc1ccc(/C=C2\Cc3cc(O)ccc3C2=O)cc1` [CHEMBL3900500], the Selectivity is 6.582.

Take `Cc1ccc2occ(/C=N/c3cc(F)ccc3O)c(=O)c2c1` [CHEMBL4090445]: the Selectivity is reported as 1.637.

As for `O=C1/C(=C/c2ccc(Br)cc2)Cc2cc(O)ccc21` [CHEMBL3950873], the Selectivity is on record as 198.113.

Regarding `COc1cccc(/C=C2\Cc3cc(O)ccc3C2=O)c1` [CHEMBL3918471], the Selectivity is 2.527.

Take `O=c1c2ccccc2sc2cc(O)cc(O)c12` [CHEMBL2018439, 1,3-Dihydroxythioxanthone]: the Selectivity is recorded as 0.9333.

With `O=C1/C(=C/c2ccc(N3CCCC3)cc2)Oc2cc(O)cc(O)c21` [CHEMBL3786282], the Selectivity is given as 1.1688.

Regarding `O=c1c(/C=N/c2cc(F)ccc2O)coc2ccccc12` [CHEMBL4082043], the Selectivity is listed as 2.612.

For the molecule `O=C1/C(=C/c2ccc(O)c(O)c2)COc2ccccc21` [CHEMBL1766558], the Selectivity was 33.7319 and 33.73.

With `CCN(CC)c1ccc(/C=C2\Oc3cc(O)cc(O)c3C2=O)cc1` [CHEMBL3786747], the Selectivity is on record as 0.3443.

Regarding `O=C(Nc1ccc(O)c(O)c1)c1cc(=O)c2ccccc2o1` [CHEMBL1814057], the Selectivity is given as 0.07.

Consider `CCN(C)c1ccc(/C=C2\Oc3cc(O)cc(O)c3C2=O)cc1` [CHEMBL3786785], for which the Selectivity was 0.03453.

Source of the values: article PMC8929578, “In vitro and in silico evaluation of Ononis isoflavonoids as molecules targeting the central nervous system” (PLoS ONE, 2022).
